Literature values, collected in patent publication US12233048B2 (Société des Produits Nestlé S.A., priority 2022, dated 2025).

In the case of COc1ccc2[nH]cc(CCNC(C)=O)c2c1 [melatonin, N-acetyl-5-methoxytryptamine], the “time after ingestion for blood plasma concentration to reach its peak” value (after ingestion) is listed as “more than 30 minutes” and the bioavailability (exogenous melatonin) is listed as “poor and highly variable”.
